How the values were obtained:
myofibrillar proteins [1] = assay: Freeze denaturation of myofibrillar proteins, remaining Ca-ATPase activity after cryopreservation at −20° C.; assay type: biochemical, carp (Cyprinus carpio); conditions: approximately 1 month, FIG. 3
Description: Next, a method for determining the effect of inhibiting freeze denaturation will be described. […] In this case, a comparison is made not by an absolute value of denaturation rate constant but a relative value thereof. The measurement of Ca-ATPase activity is the same as above.
The myofibrils were taken approximately 1 month later and added to 0.5M KCl, 25 mM Tris-maleate (pH 7.0), 5 mM CaCl2 and 1 mM ATP to prepare a reaction composition liquid to be reacted at 25° C. After 5% perchloric acid was added thereto to stop the reaction and filter the product, free inorganic phosphate was subjected to colorimetric determination by phosphomolybdic acid method to calculate Ca-ATPase activity and analyze the extent of denaturation observed from the decline of Ca-ATPase activity.

myosin = molecular target: T1, myosin (Cyprinus carpio, UniProt Q90339); assay: Heat denaturation of myosin at 35° C., followed by loss of Ca-ATPase activity (denaturation rate constant KD); assay type: biochemical, carp (Cyprinus carpio); conditions: compound added by 1M; myosin heated at 35° C.; FIG. 1
T1 construct: myofibrils were prepared from dorsal meat of carp (Cyprinus carpio); from tissue; host or cells: dorsal muscle of carp
Text: (§1) In this embodiment, determination of the effect of inhibiting denaturation of fish meat-origin muscular proteins employs a method for calculating a rate of denaturation of myosin based on disappearance of Ca-ATPase activity as bioactivity of myosin {Tohru Oizumi et al.: Gyoruikingenseni-no-kanetsuhensei-ni-taisuru-to-oyobi-toarukohru-no-hogokohka-no-teiryokosatsu (Quantitative Examination of Effect of Protecting Sugars and Sugar Alcohols from Heat Denaturation of Fish Myofibril. Journal of the Japanese Society of Fisheries Science, 47, 901-908 (1981)}. Said method in this embodiment will be described as follows by dividing into a method for determining the effect of inhibiting heat denaturation and a method for determining effect of inhibiting freeze denaturation.
(§2) Firstly, a method for determining the effect of inhibiting heat denaturation is described. […] Then, changes in Ca-ATPase activity of the fish meat-origin muscular proteins heated are analyzed according to a first-order reaction equation to calculate a denaturation rate constant (KD). Ca-ATPase activity is measured by preparing a reaction composition liquid composed of 0.5M KCl, 25 mM Tris-maleate (pH 7.0), 5 mM CaCl2, 1 mM ATP and 0.2 to 0.3 mg/ml of fish meat-origin muscular proteins subjected to heating and ice cold and determining free inorganic phosphate quantitatively. Then, denaturation rate constant is calculated from Ca-ATPase activity obtained and heating time. Consequently, if the denaturation rate constant is smaller, the effect of inhibiting denaturation of fish meat-origin muscular proteins is significant, and if the denaturation rate constant is larger, the effect of inhibiting denaturation of fish meat-origin muscular proteins is small.
After myofibrils were prepared from dorsal meat of carp (Cyprinus carpio) according to a method by Noboru Katoh et al. {Noboru Katoh et al.: Gyruikingenseni-ATPase-no-seikagakuteki-kenkyu (Biochemical Research of Fish Myofibrillary ATPase). Journal of the Japanese Society of Fisheries Science, 43, 857-867 (1977)}, the myofibrils were dissolved in 0.5M KCl in the presence of ATP-Mg and 40 to 55% ammonium sulfate fraction was used as myosin by ammonium sulfate fractionation. […] After 5% perchloric acid was added thereto to stop the reaction and filter the product, free inorganic phosphate was subjected to colorimetric determination by phosphomolybdic acid method to calculate a logarithmic value of denaturation rate constant.

myofibrillar proteins [2] = assay: Heat denaturation of myofibrillar proteins at 42° C., followed by loss of Ca-ATPase activity (denaturation rate constant KD); assay type: biochemical, carp (Cyprinus carpio); conditions: for decline of rate of denaturation of myofibrillar proteins (logarithmic value of denaturation rate constant KD): compound added by 1M, myofibrils heated at 42° C., FIG. 2
Text: as §1, §2
After 5% perchloric acid was added thereto to stop the reaction and filter the product, free inorganic phosphate was subjected to colorimetric determination by phosphomolybdic acid method to calculate a logarithmic value of denaturation rate constant.

myofibrillar proteins [3] = assay: Dissolution of myofibrillar proteins, soluble proteins in supernatant after centrifugal separation; assay type: biochemical, carp (Cyprinus carpio); conditions: addition of 0.6M; FIG. 4
myofibrillar proteins [4] = conditions: relative to sorbitol; Non-Patent Document 1; cited from earlier work

T1 sequence (Q90339 whole entry): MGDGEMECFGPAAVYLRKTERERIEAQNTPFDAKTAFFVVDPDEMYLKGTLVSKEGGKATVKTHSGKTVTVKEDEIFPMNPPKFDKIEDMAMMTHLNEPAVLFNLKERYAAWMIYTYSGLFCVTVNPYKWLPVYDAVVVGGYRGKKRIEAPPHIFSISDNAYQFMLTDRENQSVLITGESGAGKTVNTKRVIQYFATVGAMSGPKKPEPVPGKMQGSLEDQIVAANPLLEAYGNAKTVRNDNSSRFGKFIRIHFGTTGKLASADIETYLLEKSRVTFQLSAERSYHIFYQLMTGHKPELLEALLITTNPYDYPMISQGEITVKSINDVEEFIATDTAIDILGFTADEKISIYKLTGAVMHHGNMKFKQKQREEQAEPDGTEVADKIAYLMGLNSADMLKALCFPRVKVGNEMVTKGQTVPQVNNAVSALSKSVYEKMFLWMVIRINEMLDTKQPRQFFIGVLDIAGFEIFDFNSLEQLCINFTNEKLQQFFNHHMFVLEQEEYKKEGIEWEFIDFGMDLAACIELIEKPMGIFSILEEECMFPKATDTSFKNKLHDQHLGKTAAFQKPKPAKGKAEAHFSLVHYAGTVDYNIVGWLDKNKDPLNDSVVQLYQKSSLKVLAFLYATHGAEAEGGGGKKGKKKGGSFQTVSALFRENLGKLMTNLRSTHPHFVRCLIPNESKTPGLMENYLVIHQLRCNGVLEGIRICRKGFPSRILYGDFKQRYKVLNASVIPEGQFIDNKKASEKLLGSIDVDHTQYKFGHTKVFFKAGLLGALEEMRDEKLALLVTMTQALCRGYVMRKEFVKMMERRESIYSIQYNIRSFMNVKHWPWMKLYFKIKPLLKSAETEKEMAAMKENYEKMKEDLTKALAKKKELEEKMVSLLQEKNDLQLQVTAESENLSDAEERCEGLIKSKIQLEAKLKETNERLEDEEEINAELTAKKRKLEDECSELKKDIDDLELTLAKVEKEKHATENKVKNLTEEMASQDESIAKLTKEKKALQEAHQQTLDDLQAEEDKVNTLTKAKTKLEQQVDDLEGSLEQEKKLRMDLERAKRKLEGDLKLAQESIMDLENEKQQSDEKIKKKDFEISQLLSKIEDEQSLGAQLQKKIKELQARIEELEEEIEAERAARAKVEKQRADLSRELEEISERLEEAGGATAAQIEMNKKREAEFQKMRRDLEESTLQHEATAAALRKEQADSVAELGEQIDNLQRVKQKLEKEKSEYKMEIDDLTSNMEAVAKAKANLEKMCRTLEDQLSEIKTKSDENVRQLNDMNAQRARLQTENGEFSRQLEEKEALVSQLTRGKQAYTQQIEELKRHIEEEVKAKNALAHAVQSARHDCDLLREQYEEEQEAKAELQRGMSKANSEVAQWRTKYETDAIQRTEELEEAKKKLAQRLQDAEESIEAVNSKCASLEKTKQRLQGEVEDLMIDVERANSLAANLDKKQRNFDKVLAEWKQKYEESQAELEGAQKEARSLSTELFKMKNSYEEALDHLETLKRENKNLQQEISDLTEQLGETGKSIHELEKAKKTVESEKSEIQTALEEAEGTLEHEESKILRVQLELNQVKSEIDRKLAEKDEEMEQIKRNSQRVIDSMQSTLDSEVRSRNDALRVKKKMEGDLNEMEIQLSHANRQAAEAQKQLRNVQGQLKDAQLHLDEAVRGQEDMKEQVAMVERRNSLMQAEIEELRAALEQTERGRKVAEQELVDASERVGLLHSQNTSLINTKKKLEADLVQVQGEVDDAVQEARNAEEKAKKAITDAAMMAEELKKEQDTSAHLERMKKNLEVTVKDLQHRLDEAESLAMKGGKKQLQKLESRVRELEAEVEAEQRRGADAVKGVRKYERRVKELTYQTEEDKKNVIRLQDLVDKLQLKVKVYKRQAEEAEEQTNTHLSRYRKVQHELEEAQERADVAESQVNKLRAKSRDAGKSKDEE

Row | SMILES | effect of inhibiting freeze denaturation (Ca-ATPase activity), ranking (myofibrillar proteins [1]) | decline of rate of denaturation of myosin (logarithmic value of denaturation rate constant KD) (myosin) | decline of rate of denaturation of myofibrillar proteins (logarithmic value of denaturation rate constant KD) (myofibrillar proteins [2]) | dissolution of myofibrillar proteins at 0.6M, in words (myofibrillar proteins [3]) | inhibition of heat denaturation of myofibrillar proteins, times sorbitol (myofibrillar proteins [4]) | effect of stabilizing myofibrillar proteins, times sodium gluconate (myofibrillar proteins [2]; relative to sodium gluconate, worked out from own data and Non-Patent Document 1)
1 | CC(=O)[O-].[Na+] [sodium acetate] | smallest effect of inhibiting freeze denaturation | 1.1 | 0.3 | – | – | –
2 | OC[C@@H](O)[C@@H](O)[C@H](O)[C@@H](O)CO [sorbitol] | smallest effect of inhibiting freeze denaturation, followed by sorbitol | 0.7 | 0.6 | not dissolved at all | – | –
3 | N[C@@H](CCC(=O)[O-])C(=O)[O-].[Na+].[Na+] [sodium glutamate] | strongest effect of inhibiting freeze denaturation | 1.7 | 0.9 | – | – | –
4 | O=C([O-])[C@H](O)[C@@H](O)[C@H](O)[C@H](O)CO.[Na+] [sodium gluconate] | – | – | – | – | about 1.5 times | –
5 | O=C([O-])CC(O)(CC(=O)[O-])C(=O)[O-].[Na+].[Na+].[Na+] [sodium citrate] | strongest effect of inhibiting freeze denaturation | 1.7 | 0.9 | – | – | at least 1.3 times

Source: patent publication US20100119655A1, “MUSCULAR PROTEIN DENATURATION INHIBITOR, ADDITIVE FOR A FISH MEAT-ORIGIN GROUND MEAT, FISH MEAT-ORIGIN GROUND MEAT CONTAINING THE SAME AND METHOD OF PRODUCING THE SAME” (Nagasaki Prefectural Government, priority 2007, published 2010)
